Source: US20250312378A1, “COMPOSITION COMPRISING ANTI-FOLIC ACID AGENT FOR DIFFERENTIATION OF MESENCHYMAL STEM CELL INTO CARTILAGE” (EWHA UNIVERSITY-INDUSTRY COLLABORATION FOUNDATION, priority 2021, published 2025)

Experiments:
[1] = In vitro drug release from PEG-PA thermogel into PBS (HPLC); type: physicochemical; conditions: from PEG-PA thermogel (10.0 wt %) into PBS, 37° C.
Description: The drug release profile of the thermogel was determined in vitro. […] The temperature of the polymer solution containing the drug was increased to 37° C. to cause a sol-gel transition. After 30 minutes, phosphate-buffered saline (PBS) (1.2 mL, 37° C.) was added thereto, and the mixture was placed in a shaking thermostatic bath with 40 strokes/min at 37° C. PBS was replaced at specific sampling intervals. The drug released into the medium, PBS, was analyzed by a high-performance liquid chromatography system (HPLC; Waters 1525B, USA) equipped with a photodiode detector (Waters 2998, USA) and a Jupiter@5 μm C18 300A LC column (Phenomenex, USA). As a mobile phase, a mixed solvent of methanol/water (40/60 v/v) containing trifluoroacetic acid (0.1%) was used for dapsone, pralatrexate and trimethoprim, and a mixed solvent of acetonitrile/water (35/65 v/v) containing formic acid (0.1%) was used for KGN. The flow rate was set at 1.0 ml/min. The amount of drug released was analyzed at 260 nm for dapsone, 307 nm for pralatrexate, 287 nm for trimethoprim, and 274 nm for KGN, and was determined as the mean value of triplicate determinations.

[2] = test system: COL II; experiment: Screening of COL II mRNA expression under 3D culture conditions (FIG. 4B); type: cell-based, Human; conditions: 0.1 μM
Description: Various antifolates were screened to evaluate their effects on cell proliferation and viability and their chondrogenic potential. The antifolates used were dapsone (1), methotrexate (2), pemetrexed (3), pralatrexate (4), proguanil (5), pyrimethamine (6), and trimethoprim (7). Stem cells loaded in a PEG-PA thermogel scaffold containing each antifolate or KGN were cultured in a DMEM growth medium containing FBS (10.0% v/v) for 21 days. A control experiment was performed under the same conditions, except that no antifolate was added.
Expression of chondrogenic biomarkers was investigated in the presence of antifolates. The expression of COL II, the most widely used biomarker for chondrogenic differentiation of stem cells, was investigated at the mRNA level (FIG. 4B).

[3] = test system: COL II; experiment: COL II mRNA expression by qPCR in TMSCs in PEG-PA 3D matrix; type: cell-based, Human; conditions: 0.1 μM; for COL II expression level compared to control system (day not given): vs control system, time point not given; for COL II mRNA level compared to control system, day 14: day 14, vs control system containing no antifolate
From the text: (§1) Based on the screening results obtained in Example 3, dapsone (1), pralatrexate (4), and trimethoprim (7) were selected as antifolate candidates.
(§2) Human TMSCs used as stem cells were donated from Ewha Womans University Mokdong Hospital (Seoul, Korea). The cells were isolated from a donor after tonsillectomy in compliance with the ethical guidelines of the University. DMEM (Corning, USA) containing 10.0% (v/v) fetal bovine serum (FBS, Corning, USA), 1.0% (v/v) penicillin/streptomycin (PS, Corning, USA) and 1.0% (v/v) […] (AA, Corning, USA) was used as a growth medium, and the isolated human TMSCs were cultured using the growth medium in traditional polystyrene culture dishes at 37° C. under 5% CO2 atmosphere. Then, the stem cells (passage 7, 0.5×10^6 cells/well) were mixed with the aqueous PEG-PA solution (10.0 wt % in growth medium) containing an antifolate or KGN at 20° C. A system containing no antifolate or KGN was used as a control. The TMSC-suspended solution was injected into a 24-well culture plate (0.2 ml/well) at 37° C. to form a hydrogel matrix. The medium was replaced every 3 days during a 3D culture period of 21 days, and each experiment was performed in triplicate.
(§3) Chondrogenic differentiation of TMSCs was investigated at the mRNA and protein levels of chondrogenic biomarkers such as COL II, SOX 9, and ACAN. Gene expression levels were determined compared to that of a control system containing no antifolate using equal amounts of cDNA. COL I, an osteogenic biomarker, was also used to determine whether osteogenic differentiation occurred when an antifolate was used.
(§4) Specifically, after 0, 14, and 21 days of 3D culture, mRNA was extracted from the cells in the thermogel by using a TRIZOL™ reagent (Invitrogen, USA) according to the manufacturer's protocol, and the mRNA concentration was assayed by a Nano Drop 2000 spectrometer (Thermo Scientific, USA). Equal amounts of cDNA were used in qPCR to determine gene expression levels compared to that of the control system containing no antifolate. Then, total cDNA was synthesized using a ReverTra Ace® qPCR RT kit (Toyobo, Japan), and mRNA expression levels were measured using a CFX96™ real-time RT-PCR system (Bio-Rad, USA) and an iQ™ SYBR® Green Supermix solution (Bio-Rad, USA). The relative expression levels of target genes were calculated as 2^−ΔΔCt by the following calculation equation: ΔΔCt=(gene A−GAPDH)t−(gene A−GAPDH)0. Here, the subscript 0 refers to data on day 0 (3 hours). The primer sequences used for amplification are shown in Table 1 below, and each test value was determined as the mean value of triplicate determinations.

[4] = test system: SOX 9; experiment: SOX 9 mRNA expression by qPCR in TMSCs in PEG-PA 3D matrix; type: cell-based, Human; conditions: 0.1 μM
From the text: as §1, §2, §3
as §4, with “[…],” for “after 0, 14, and 21 days of 3D culture,”

[5] = test system: ACAN; experiment: ACAN mRNA expression by qPCR in TMSCs in PEG-PA 3D matrix; type: cell-based, Human; conditions: 0.1 μM; for ACAN expression level on day 14 compared to control system: day 14, vs control system containing no antifolate; for ACAN mRNA level on day 14 compared to day 0: day 14 vs day 0 (3 hours after start of culture)
From the text: as §1, §2, §3
as §4, with “[…],” for “after 0, 14, and 21 days of 3D culture,”

[6] = test system: COL II; experiment: COL II protein expression by immunofluorescence assay; type: cell-based, Human; conditions: 0.1 μM, 14 days 3D culture
Description: (§5) Protein expression for COL II, SOX 9, ACAN and COL I was investigated using immunofluorescence assay for stem cells cultured for 14 days. Specifically, TMSCs, which were 3D cultured with antifolates or KGN for 14 days and then encapsulated in thermogel scaffolds, were fixed with 4.0% paraformaldehyde (PFA) for 12 hours and quickly frozen at −70° C. Then, the thermogels were cryosectioned to a thickness of 10 μm using CM1850 (Leica, Germany). All the samples were treated with Triton (0.25% v/v in PBS), and then blocked with bovine serum albumin (1.0% w/v in PBS), and treated with anti-COL II, anti-SOX 9, anti-ACAN, and anti-COL I primary antibodies. Next, the samples were washed with PBS and treated with the following secondary antibodies: goat anti-mouse IgG H&L Alexa Fluor®594 for COL II and ACAN, and goat anti-rabbit IgG H&L Alexa Fluor®594 for SOX 9 and COL I. All the antibodies were purchased from Abcam (USA) and tested according to the manufacturer's protocol. In addition, each sample was stained for nuclei and F-actin with DAPI (Molecular probes, USA) and phalloidin (PHD) (Abcam, USA), respectively. Images were obtained using an Olympus IX71 fluorescence microscope and Olympus DP2-BSW software.
(§6) For immunofluorescence assay, the cell nucleus and actin were stained blue and green with DAPI and PHD, respectively, and the antibodies for each protein were stained red.

[7] = test system: SOX 9; experiment: SOX 9 protein expression by immunofluorescence assay; type: cell-based, Human; conditions: 0.1 μM, 14 days 3D culture
Description: as §5, §6

[8] = test system: ACAN; experiment: ACAN protein expression by immunofluorescence assay; type: cell-based, Human; conditions: 0.1 μM, 14 days 3D culture
Description: as §5, §6

[9] = test system: CBFβ; experiment: Nuclear translocation of CBFβ in TMSCs by Western blot; type: cell-based, Human; conditions: serum-free growth medium after overnight starvation
From the text: Filamin A is an actin-binding protein that regulates the cytoskeletal network involved in chondrogenic differentiation. When KGN binds to filamin A in the cytosol, the interaction between filamin A and CBFβ is broken, and when the dissociated CBFβ enters the nucleus, CBFβ regulates RUNX1, thereby promoting differentiation of MSCs into chondrocytes. Whether the antifolate can be involved in this mechanism and regulate chondrogenic differentiation-related factors was examined by Western blot analysis and immunofluorescence assay.
Specifically, for Western blot analysis, stem cells (TMSCs) were starved overnight and then treated with each antifolate or KGN in serum-free growth medium. Then, cytosolic and nuclear proteins of the TMSCs were obtained using a nuclear/cytosolic fractionation kit (Cell Biolabs Inc., USA) and total protein was obtained using a cell extraction buffer (Invitrogen, USA) containing a protease inhibitor and phenyl methane sulfonyl fluoride (1.0 mM). Each of the cytosolic and nuclear proteins was loaded, detected with anti-CBFβ primary antibody (Cell Signaling Technology, USA), and then treated with anti-rabbit IgG HRP-conjugated secondary antibody (Cell Signaling Technology, USA) and incubated. Then, the proteins were visualized with an enhanced chemiluminescence substrate (Bio-rad, USA) using an Amersham Imager 600 (GE, UK).

[10] = test system: RUNX1; experiment: RUNX1 immunofluorescence in TMSCs; type: cell-based, Human; conditions: serum-free growth medium after overnight starvation
Description: For immunofluorescence assay, stem cells were starved overnight and then treated with each antifolate or KGN in serum-free growth medium. Each cell was treated with bovine serum albumin (1.0% w/v in PBS), and then treated with anti-CBFβ primary antibody (Abcam, USA) and anti-RUNX1 primary antibody (Santa Cruz Biotechnology, USA) and incubated. The cells were treated with anti-rabbit IgG H&L secondary antibodies (Abcam, USA) and anti-mouse IgG H&L secondary antibodies (Abcam, USA) against CBFβ and RUNX1, respectively. The cell nuclei were stained with DAPI (Molecular probes, USA), and each image was obtained using an Olympus IX71 fluorescence microscope and Olympus DP2-BSW software.

Row | Structure (SMILES) | drug released over 24 hours [1] [%] | mRNA expression level of COL II compared to control [2] [fold] | COL II expression level compared to control system (day not given) [3] [fold] | COL II expression, rank among systems [3] | COL II expression relative to KGN ([3]; day 14) [fold] | COL II mRNA level compared to control system, day 14 [3] [fold] | COL II expression on day 14 compared to day 0 ([3]; day 14 vs day 0 (3 hours after start of culture)) [fold] | SOX 9 expression change [4] | SOX 9 mRNA level, rank among systems [4] | SOX 9 mRNA expression level compared to control system, day 14 [4] [fold] | ACAN expression level on day 14 compared to control system [5] [fold] | ACAN mRNA level on day 14 compared to day 0 [5] [fold] | fluorescence intensity of COL II protein [6] | fluorescence intensity of SOX 9 protein [7] | fluorescence intensity of ACAN protein [8] | nuclear translocation of CBFβ (nuclear versus cytosolic band intensity, FIG. 8B) [9] | fluorescence intensity of RUNX1 in the nucleus compared to control [10] | ACAN mRNA level relative to control system, day 20 ([5]; day 20)
1 | Nc1ccc(S(=O)(=O)c2ccc(N)cc2)cc1 [dapsone] | 70 | 1.8 | 2.6 |  |  |  |  |  |  |  |  |  |  |  |  |  |  | 
2 | C#CCC(Cc1cnc2nc(N)nc(N)c2n1)c1ccc(C(=O)N[C@@H](CCC(=O)O)C(=O)O)cc1 (stereo partly shown) [pralatrexate] | 79 | 2.1 | 3.5 | highest | 2 | 3.9 | 10 | significantly (p<0.01) increased | highest | 4.2 | 4.3 | 12 | highest | highest | highest | increased | increased | 
3 | O=C(O)c1ccccc1C(=O)Nc1ccc(-c2ccccc2)cc1 [KGN, kartogenin] |  | 1.5 | 2.1 |  |  | 1.7 |  |  |  |  | 1.7 | 5 |  |  |  |  |  | approximately 3.7 times
4 | COc1cc(Cc2cnc(N)nc2N)cc(OC)c1OC [trimethoprim] | 79 | 1.5 | 2.1 |  |  | 2.1 |  | significantly (p<0.01) increased |  | 2.9 | 2.2 | 6 |  |  |  |  |  | 
